Common to all, as to test: Enzyme Assay
Assay [1] deals with PIK3CA (human) (UniProt P42336).
For assay [2], the target named is PIK3CG (human) (UniProt P48736).
Assay [3] concerns the target PIK3CD (Human) (UniProt O00329).
Assay [4] has as its target PIK3CB (Human) (UniProt P42338).

Molecules are shown by their SMILES.

Chain of PIK3CD (Human) (O00329 whole entry, looked up): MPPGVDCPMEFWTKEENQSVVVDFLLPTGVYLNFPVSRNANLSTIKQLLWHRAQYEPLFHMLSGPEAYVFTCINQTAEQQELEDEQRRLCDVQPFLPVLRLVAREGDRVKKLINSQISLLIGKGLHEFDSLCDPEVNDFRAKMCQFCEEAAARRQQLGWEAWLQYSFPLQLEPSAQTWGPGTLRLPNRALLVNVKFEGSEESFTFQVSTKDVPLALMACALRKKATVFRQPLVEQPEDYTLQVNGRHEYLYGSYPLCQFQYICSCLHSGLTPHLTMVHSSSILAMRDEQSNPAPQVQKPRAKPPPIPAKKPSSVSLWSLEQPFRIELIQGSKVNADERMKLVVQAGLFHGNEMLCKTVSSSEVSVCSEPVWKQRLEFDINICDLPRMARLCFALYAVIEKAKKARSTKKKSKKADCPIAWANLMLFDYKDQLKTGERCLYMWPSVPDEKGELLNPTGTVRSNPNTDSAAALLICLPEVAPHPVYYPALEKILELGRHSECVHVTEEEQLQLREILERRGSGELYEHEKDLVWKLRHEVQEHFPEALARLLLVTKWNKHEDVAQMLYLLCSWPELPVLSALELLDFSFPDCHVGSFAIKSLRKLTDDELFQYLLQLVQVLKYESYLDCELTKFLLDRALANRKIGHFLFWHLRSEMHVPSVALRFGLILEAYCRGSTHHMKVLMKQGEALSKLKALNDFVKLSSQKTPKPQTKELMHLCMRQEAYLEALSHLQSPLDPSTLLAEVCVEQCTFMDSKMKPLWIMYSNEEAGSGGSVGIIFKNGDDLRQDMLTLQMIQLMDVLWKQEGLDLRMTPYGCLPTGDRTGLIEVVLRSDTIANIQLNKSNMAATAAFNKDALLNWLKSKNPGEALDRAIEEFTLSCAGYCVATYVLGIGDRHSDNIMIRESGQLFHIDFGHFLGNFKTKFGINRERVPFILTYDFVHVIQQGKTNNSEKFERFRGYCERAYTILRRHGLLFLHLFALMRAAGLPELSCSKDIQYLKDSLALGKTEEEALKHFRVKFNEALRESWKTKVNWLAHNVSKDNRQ
Chain of PIK3CG (human) (P48736 whole entry, looked up): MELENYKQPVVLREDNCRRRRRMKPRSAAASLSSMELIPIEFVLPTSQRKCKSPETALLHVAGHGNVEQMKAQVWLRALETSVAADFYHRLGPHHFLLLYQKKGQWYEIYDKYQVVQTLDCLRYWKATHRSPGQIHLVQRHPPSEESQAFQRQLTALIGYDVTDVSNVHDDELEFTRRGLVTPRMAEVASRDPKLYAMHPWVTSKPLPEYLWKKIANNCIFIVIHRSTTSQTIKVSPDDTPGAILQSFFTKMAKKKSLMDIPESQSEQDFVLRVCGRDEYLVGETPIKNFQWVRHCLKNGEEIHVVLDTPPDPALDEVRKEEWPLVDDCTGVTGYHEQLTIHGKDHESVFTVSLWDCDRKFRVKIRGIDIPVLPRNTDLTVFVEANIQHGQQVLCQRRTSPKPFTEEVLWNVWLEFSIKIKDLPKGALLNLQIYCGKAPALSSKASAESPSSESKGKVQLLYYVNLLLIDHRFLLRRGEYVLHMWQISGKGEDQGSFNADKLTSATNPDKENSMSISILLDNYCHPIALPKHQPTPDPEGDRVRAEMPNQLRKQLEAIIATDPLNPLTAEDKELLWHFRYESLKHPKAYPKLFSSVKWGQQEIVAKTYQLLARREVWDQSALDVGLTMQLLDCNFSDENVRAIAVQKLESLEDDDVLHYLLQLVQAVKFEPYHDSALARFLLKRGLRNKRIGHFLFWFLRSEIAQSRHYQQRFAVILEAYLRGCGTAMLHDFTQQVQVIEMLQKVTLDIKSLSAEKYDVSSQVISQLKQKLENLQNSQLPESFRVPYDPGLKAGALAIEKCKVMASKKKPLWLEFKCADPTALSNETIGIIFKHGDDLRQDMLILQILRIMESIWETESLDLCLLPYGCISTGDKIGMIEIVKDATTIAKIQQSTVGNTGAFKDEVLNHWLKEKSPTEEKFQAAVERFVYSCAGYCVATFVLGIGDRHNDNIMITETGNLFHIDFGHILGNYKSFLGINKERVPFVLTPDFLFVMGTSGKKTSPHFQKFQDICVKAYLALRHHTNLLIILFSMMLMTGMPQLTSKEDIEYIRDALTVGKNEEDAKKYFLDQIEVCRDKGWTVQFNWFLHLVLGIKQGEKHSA
Chain of PIK3CA (human) (P42336 whole entry, looked up): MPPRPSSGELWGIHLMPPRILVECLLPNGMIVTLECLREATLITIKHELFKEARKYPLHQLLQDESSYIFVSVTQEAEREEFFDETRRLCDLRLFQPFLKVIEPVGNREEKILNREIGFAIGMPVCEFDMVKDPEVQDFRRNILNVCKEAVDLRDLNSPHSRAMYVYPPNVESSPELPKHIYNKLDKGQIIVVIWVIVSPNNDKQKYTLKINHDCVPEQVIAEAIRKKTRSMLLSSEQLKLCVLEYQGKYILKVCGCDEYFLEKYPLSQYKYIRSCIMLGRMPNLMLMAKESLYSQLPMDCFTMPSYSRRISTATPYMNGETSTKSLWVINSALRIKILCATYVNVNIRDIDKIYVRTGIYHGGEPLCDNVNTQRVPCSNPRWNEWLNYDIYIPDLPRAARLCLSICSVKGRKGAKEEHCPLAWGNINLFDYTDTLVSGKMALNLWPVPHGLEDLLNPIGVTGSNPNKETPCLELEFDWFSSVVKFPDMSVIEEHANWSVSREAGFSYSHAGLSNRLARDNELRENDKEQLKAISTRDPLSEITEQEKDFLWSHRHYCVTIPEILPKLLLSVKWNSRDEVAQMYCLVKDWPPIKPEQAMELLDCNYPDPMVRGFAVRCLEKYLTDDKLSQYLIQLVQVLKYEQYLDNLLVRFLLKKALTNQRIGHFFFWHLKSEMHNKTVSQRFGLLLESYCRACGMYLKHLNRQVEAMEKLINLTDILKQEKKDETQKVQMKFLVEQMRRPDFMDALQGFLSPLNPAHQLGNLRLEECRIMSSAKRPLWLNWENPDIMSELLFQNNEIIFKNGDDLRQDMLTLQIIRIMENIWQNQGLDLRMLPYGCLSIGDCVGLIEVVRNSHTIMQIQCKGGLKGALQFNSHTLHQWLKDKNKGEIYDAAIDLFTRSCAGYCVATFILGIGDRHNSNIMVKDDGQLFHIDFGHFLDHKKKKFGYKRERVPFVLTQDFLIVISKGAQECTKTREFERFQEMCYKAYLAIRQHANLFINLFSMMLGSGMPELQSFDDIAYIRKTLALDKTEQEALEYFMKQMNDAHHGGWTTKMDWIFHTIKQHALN
Chain of PIK3CB (Human) (P42338 whole entry, looked up): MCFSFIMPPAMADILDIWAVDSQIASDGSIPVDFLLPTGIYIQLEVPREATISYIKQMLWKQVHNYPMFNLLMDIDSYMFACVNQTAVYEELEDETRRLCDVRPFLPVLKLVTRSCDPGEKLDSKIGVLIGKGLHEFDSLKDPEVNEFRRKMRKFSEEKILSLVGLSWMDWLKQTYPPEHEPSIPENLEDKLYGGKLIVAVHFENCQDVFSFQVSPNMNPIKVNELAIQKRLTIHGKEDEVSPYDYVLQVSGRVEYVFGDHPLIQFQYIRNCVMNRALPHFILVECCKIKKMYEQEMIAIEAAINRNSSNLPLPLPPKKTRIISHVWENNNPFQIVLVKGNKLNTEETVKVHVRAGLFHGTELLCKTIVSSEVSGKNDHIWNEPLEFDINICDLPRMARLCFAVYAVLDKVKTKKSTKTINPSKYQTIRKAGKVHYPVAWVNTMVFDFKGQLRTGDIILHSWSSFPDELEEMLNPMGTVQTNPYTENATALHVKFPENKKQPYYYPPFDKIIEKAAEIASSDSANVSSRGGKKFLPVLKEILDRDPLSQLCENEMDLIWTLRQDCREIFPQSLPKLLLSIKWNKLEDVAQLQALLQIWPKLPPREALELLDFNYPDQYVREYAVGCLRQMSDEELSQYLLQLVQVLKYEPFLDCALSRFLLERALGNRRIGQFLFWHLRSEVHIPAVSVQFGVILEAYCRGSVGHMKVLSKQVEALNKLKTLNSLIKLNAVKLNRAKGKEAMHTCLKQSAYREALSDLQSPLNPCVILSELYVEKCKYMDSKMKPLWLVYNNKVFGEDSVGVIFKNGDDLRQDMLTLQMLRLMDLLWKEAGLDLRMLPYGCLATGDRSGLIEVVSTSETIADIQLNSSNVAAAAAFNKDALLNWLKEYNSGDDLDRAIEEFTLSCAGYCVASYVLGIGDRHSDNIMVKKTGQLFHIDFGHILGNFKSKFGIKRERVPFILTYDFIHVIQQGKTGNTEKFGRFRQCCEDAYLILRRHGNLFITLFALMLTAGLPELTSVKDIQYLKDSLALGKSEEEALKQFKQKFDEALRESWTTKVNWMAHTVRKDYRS

For orientation: IC50 means the point on the concentration scale where inhibition reaches its midpoint. Read a low IC50 as greater potency. Regarding `CN(CCO)S(=O)(=O)c1cncc(-c2ccc3nc(NC(=O)NCCc4noc(C(C)(C)C)n4)sc3c2)c1`, the half-maximal inhibitory concentration (IC50) in assay [1] amounted to 1.68 µM; in assay [2], 0.003 µM; in assay [3], 0.166 µM; in assay [4], 0.062 µM.
In the case of `CC(C)(C)NS(=O)(=O)c1cncc(-c2cc(F)c3nc(N)nn3c2)c1`, the IC50 in assay [1] is above 10 µM; in assay [2] it was 0.027 µM; in assay [3] it was 8.2 µM; in assay [4], 1.1 µM.
Take `C[C@@H]1COCCN1c1cc(=O)n2c(n1)N(Cc1cncc(Cl)c1)[C@H](C(F)(F)F)CC2`: the IC50 in assay [2], in assay [3] and in assay [4] was above 10 µM each time.
As for `C[C@H](Nc1ncnc2nc[nH]c12)c1nc2ccc(F)cc2c(=O)n1-c1ccccc1`, the IC50 is 5.44 µM in assay [1], 1.39 µM in assay [2] and 0.012 µM in assay [3].
The compound `CC(C)(O)CNc1ncc(-c2ccnc(Nc3ccnc(Cl)c3)n2)c(CC2CC2)n1` displayed an IC50 in assay [2] of 2 µM.
Turning to `O=C1NC(=O)/C(=C/c2ccc(-c3ccc(F)cc3O)o2)S1`, the IC50 in assay [1] is 1.07 µM; in assay [3] it was above 20 µM; in assay [4], above 20 µM.
For `Fc1ccc2[nH]ccc2c1-c1nc(N2CCOCC2)c2sc(CN3CCN(CC4CC4)CC3)cc2n1`, the IC50 was 0.91 µM in assay [1], above 1000 µM in assay [2], 0.005 µM in assay [3] and 2.65 µM in assay [4].
Turning to `Nc1ncc(-c2ccnc(Nc3ccncc3)n2)c(CC2CC2)n1`, the IC50 in assay [1] stood at 3.96 µM; in assay [2] it was 3.04 µM; in assay [3], 1.2 µM.
Regarding `Cc1ccccc1Oc1cccc2c(=O)cc(N3CCOCC3)[nH]c12`, the IC50 in assay [1] was 61 µM; in assay [2], above 100 µM; in assay [3], 0.63 µM; in assay [4] it was 0.13 µM.

(Values after the Kinase Knowledgebase extract (Sharma et al. 2016).)
